pIC50: −log10 of the molar value. Like-named read-outs stand apart in the source and are kept apart here.
What was measured:
in vitro = conditions: human
[1] = system: genotype 1b replicon construct NK5.1 (HCV subgenomic RNA) in Huh7 cell line 2209-23; assay: microbe, parasite or virus in culture; format: cell-based, Hepatitis C Virus; conditions: read-out: HCV Replicon IC50
[2] = system: HCV replicon cells (2209-23); conditions: read-out: WST-1 Cytotoxicity CC50; replicon cells 2209-23, three days incubation, WST-1 OD 450 nm
[3] = Hepatitis C virus, Huh-7, 72 h, Huh7 replicon cells 2209-23, three days incubation, Renilla luciferase readout
[4] = Huh7 replicon cells 2209-23, three days incubation, Renilla luciferase readout

Structure (SMILES)	CC50 at 3 days (in vitro) [µM]	pIC50 [1, 3]	pIC50 ([1]; Hepatitis C virus, Huh-7, 72 h)	CC50 [2] [µM]	pIC50 [1, 4]
CC(C)OC(=O)[C@H](C)NP(=O)(OC[C@@]1(F)O[C@@H](n2ccc(=O)[nH]c2=O)[C@](C)(F)[C@@H]1O)Oc1ccccc1 (stereo partly drawn) [Compound I-1, (S)-2-{[(2S,3S,4R,5R)-5-(2,4-Dioxo-3,4-dihydro-2H-pyrimidin-1-yl)-2,4-difluoro-3-hydroxy-4-methyl-tetrahydro-furan-2-ylmethoxy]-phenoxy-phosphorylamino}-propionic acid isopropyl ester]	> 100				
CC(C)OC(=O)[C@H](C)NP(=O)(OC[C@@]1(F)O[C@@H](n2ccc(=O)[nH]c2=O)[C@](C)(F)[C@@H]1O)Oc1cccc2ccccc12 (stereo partly drawn) [Compound I-2, (S)-2-[[(2S,3S,4R,5R)-5-(2,4-Dioxo-3,4-dihydro-2H-pyrimidin-1-yl)-2,4-difluoro-3-hydroxy-4-methyl-tetrahydro-furan-2-ylmethoxy]-(naphthalen-1-yloxy)-phosphorylamino]-propionic acid isopropyl ester]	> 100	6.94			
CC(C)OC(=O)[C@H](C)NP(=O)(OC[C@@]1(F)O[C@@H](n2ccc(=O)[nH]c2=O)[C@](C)(F)[C@@H]1O)Oc1ccc2ccccc2c1 (stereo partly drawn) [Compound I-3, (S)-2-[[(2S,3S,4R,5R)-5-(2,4-Dioxo-3,4-dihydro-2H-pyrimidin-1-yl)-2,4-difluoro-3-hydroxy-4-methyl-tetrahydro-furan-2-ylmethoxy]-(naphthalen-2-yloxy)-phosphorylamino]-propionic acid isopropyl ester]	> 100				
CC(C)OC(=O)[C@H](C)NP(=O)(OC[C@@]1(F)O[C@@H](n2ccc(=O)[nH]c2=O)[C@](C)(F)[C@@H]1OP(=O)(N[C@@H](C)C(=O)OC(C)C)Oc1ccc2ccccc2c1)Oc1ccc2ccccc2c1 (stereo partly drawn) [Compound I-4, (S)-2-[[(2S,3S,4R,5R)-5-(2,4-dioxo-3,4-dihydro-2H-pyrimidin-1-yl)-2,4-difluoro-3-[((S)-1-isopropoxycarbonyl-ethylamino)-(naphthalen-2-yloxy)-phosphoryloxy]-4-methyl-tetrahydro-furan-2-ylmethoxy]-(naphthalen-2-yloxy)-phosphorylamino]-propionic acid isopropyl ester]	> 100		5.14		
CCC(=O)O[C@H]1[C@@](C)(F)[C@H](n2ccc(=O)[nH]c2=O)O[C@]1(F)COP(=O)(N[C@@H](C)C(=O)OC(C)C)Oc1cccc2ccccc12 (stereo partly drawn) [Compound I-5, (S)-2-[[(2S,3S,4R,5R)-5-(2,4-Dioxo-3,4-dihydro-2H-pyrimidin-1-yl)-2,4-difluoro-4-methyl-3-propionyloxy-tetrahydro-furan-2-ylmethoxy]-(naphthalen-1-yloxy)-phosphorylamino]-propionic acid isopropyl ester]	67.8	6.82			
CC(C)OC(=O)[C@H](C)N[P@](=O)(OC[C@@]1(F)O[C@@H](n2ccc(=O)[nH]c2=O)[C@](C)(F)[C@@H]1O)Oc1ccc2ccccc2c1 [Compound I-6]	> 100		7.27		
CC(C)OC(=O)[C@H](C)N[P@@](=O)(OC[C@@]1(F)O[C@@H](n2ccc(=O)[nH]c2=O)[C@](C)(F)[C@@H]1O)Oc1ccc2ccccc2c1 [Compound I-7]				> 100	6.70
CC(C)OC(=O)[C@H](C)N[P@@](=O)(OC[C@@]1(F)O[C@@H](n2ccc(=O)[nH]c2=O)[C@](C)(F)[C@@H]1O)Oc1cccc2ccccc12 [Compound I-8, (S)-2-[(R)-[(2S,3S,4R,5R)-5-(2,4-Dioxo-3,4-dihydro-2H-pyrimidin-1-yl)-2,4-difluoro-3-hydroxy-4-methyl-tetrahydro-furan-2-ylmethoxy]-(naphthalen-1-yloxy)-phosphorylamino]-propionic acid isopropyl ester]				> 100	5.99
CC(C)OC(=O)[C@H](C)N[P@](=O)(OC[C@@]1(F)O[C@@H](n2ccc(=O)[nH]c2=O)[C@](C)(F)[C@@H]1O)Oc1cccc2ccccc12 [Compound I-9, (S)-2-[(S)-[(2S,3S,4R,5R)-5-(2,4-Dioxo-3,4-dihydro-2H-pyrimidin-1-yl)-2,4-difluoro-3-hydroxy-4-methyl-tetrahydro-furan-2-ylmethoxy]-(naphthalen-1-yloxy)-phosphorylamino]-propionic acid isopropyl ester]	> 100	7.22			
CC(C)OC(=O)[C@H](C)N[P@](=O)(OC[C@@]1(F)O[C@@H](n2ccc(=O)[nH]c2=O)[C@](C)(F)[C@@H]1O)Oc1ccccc1 [Compound I-10, (S)-2-{(S)-[(2S,3S,4R,5R)-5-(2,4-Dioxo-3,4-dihydro-2H-pyrimidin-1-yl)-2,4-difluoro-3-hydroxy-4-methyl-tetrahydro-furan-2-ylmethoxy]-phenoxy-phosphorylamino}-propionic acid isopropyl ester]	> 100	6.77			
CC(C)OC(=O)[C@H](C)N[P@@](=O)(OC[C@@]1(F)O[C@@H](n2ccc(=O)[nH]c2=O)[C@](C)(F)[C@@H]1O)Oc1ccccc1 [Compound I-11, (S)-2-{(R)-[(2S,3S,4R,5R)-5-(2,4-Dioxo-3,4-dihydro-2H-pyrimidin-1-yl)-2,4-difluoro-3-hydroxy-4-methyl-tetrahydro-furan-2-ylmethoxy]-phenoxy-phosphorylamino}-propionic acid isopropyl ester]	95.6	5.88			
CC(C)OC(=O)[C@H](C)N[P@](=O)(OC[C@@]1(F)O[C@@H](n2cc(Br)c(=O)[nH]c2=O)[C@](C)(F)[C@@H]1O)Oc1cccc2ccccc12 [Compound I-12, (S)-2-[(S)-[(2S,3S,4R,5R)-5-(5-Bromo-2,4-dioxo-3,4-dihydro-2H-pyrimidin-1-yl)-2,4-difluoro-3-hydroxy-4-methyl-tetrahydro-furan-2-ylmethoxy]-(naphthalen-1-yloxy)-phosphorylamino]-propionic acid isopropyl ester]	34.8	4.76			
CC(C)OC(=O)[C@H](C)N[P@](=O)(OC[C@@]1(F)O[C@@H](n2cc(Br)c(=O)[nH]c2=O)[C@](C)(F)[C@@H]1O)Oc1ccc2ccccc2c1 [Compound I-13]	> 100		4.41		
CC(C)OC(=O)[C@H](C)N[P@@](=O)(OC[C@@]1(F)O[C@@H](n2cc(Br)c(=O)[nH]c2=O)[C@](C)(F)[C@@H]1O)Oc1cccc2ccccc12 [Compound I-14, (S)-2-[(R)-[(2S,3S,4R,5R)-5-(5-Bromo-2,4-dioxo-3,4-dihydro-2H-pyrimidin-1-yl)-2,4-difluoro-3-hydroxy-4-methyl-tetrahydro-furan-2-ylmethoxy]-(naphthalen-1-yloxy)-phosphorylamino]-propionic acid isopropyl ester]				50.8	5.02
CC(C)OC(=O)[C@H](C)N[P@@](=O)(OC[C@@]1(F)O[C@@H](n2cc(Br)c(=O)[nH]c2=O)[C@](C)(F)[C@@H]1O)Oc1ccc2ccccc2c1 [Compound I-15]				38.5	4.88
CC(C)OC(=O)[C@H](C)NP(=O)(OC[C@@]1(F)O[C@@H](n2cc(Br)c(=O)[nH]c2=O)[C@](C)(F)[C@@H]1O)Oc1ccc2ccccc2c1 (stereo partly drawn) [Compound I-16, (S)-2-[[(2S,3S,4R,5R)-5-(5-Bromo-2,4-dioxo-3,4-dihydro-2H-pyrimidin-1-yl)-2,4-difluoro-3-hydroxy-4-methyl-tetrahydro-furan-2-ylmethoxy]-(naphthalen-2-yloxy)-phosphorylamino]-propionic acid isopropyl ester]	> 100		4.11		
